Measured values taken from PubChem BioAssay (NCI).
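All cell lines were grown in 96-well plates and treated with compound for 48 hours. Here, GI50 denotes the concentration required for 50% inhibition of growth. Definition used: TGI = concentration required for complete inhibition of growth.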

Experiments:
Assay in all cases: growth of human tumour cells (NCI), 48 h
LOX IMVI melanoma = tested on: LOX IMVI melanoma
SNB-19 CNS = tested on: SNB-19 CNS
SR leukemia = tested on: SR leukemia
MALME-3M melanoma = tested on: MALME-3M melanoma
CCRF-CEM leukemia = tested on: CCRF-CEM leukemia
SN12C renal = tested on: SN12C renal
M14 melanoma = tested on: M14 melanoma
NCI-H522 lung = tested on: NCI-H522 lung
SF-539 CNS = tested on: SF-539 CNS
EKVX NSCLC = tested on: EKVX NSCLC
RPMI-8226 leukemia = tested on: RPMI-8226 leukemia
CAKI-1 renal = tested on: CAKI-1 renal
BT-549 breast = tested on: BT-549 breast
SW-620 colon = tested on: SW-620 colon
MOLT-4 leukemia = tested on: MOLT-4 leukemia
A498 renal = tested on: A498 renal
OVCAR-8 ovarian = tested on: OVCAR-8 ovarian
SK-MEL-2 melanoma = tested on: SK-MEL-2 melanoma
HS 578T breast = tested on: HS 578T breast
SK-MEL-5 melanoma = tested on: SK-MEL-5 melanoma
SF-295 CNS = tested on: SF-295 CNS
OVCAR-5 ovarian = tested on: OVCAR-5 ovarian
TK-10 renal = tested on: TK-10 renal
HL-60(TB) leukemia = tested on: HL-60(TB) leukemia
ACHN renal = tested on: ACHN renal
HCT-116 colon = tested on: HCT-116 colon
NCI/ADR-RES ovarian = tested on: NCI/ADR-RES ovarian
HOP-92 NSCLC = tested on: HOP-92 NSCLC
U251 CNS = tested on: U251 CNS
NCI-H226 lung = tested on: NCI-H226 lung
PC-3 prostate = tested on: PC-3 prostate
OVCAR-3 ovarian = tested on: OVCAR-3 ovarian
UO-31 renal = tested on: UO-31 renal
KM12 colon = tested on: KM12 colon
T-47D breast = tested on: T-47D breast
HOP-62 NSCLC = tested on: HOP-62 NSCLC
SK-MEL-28 melanoma = tested on: SK-MEL-28 melanoma
MCF7 breast = tested on: MCF7 breast
MDA-MB-231 breast = tested on: MDA-MB-231 breast
COLO 205 colon = tested on: COLO 205 colon
HT29 colon = tested on: HT29 colon
K-562 leukemia = tested on: K-562 leukemia
UACC-62 melanoma = tested on: UACC-62 melanoma
SK-OV-3 ovarian = tested on: SK-OV-3 ovarian
A549 NSCLC = tested on: A549 NSCLC
HCT-15 colon = tested on: HCT-15 colon
MDA-MB-435 = tested on: MDA-MB-435
SNB-75 CNS = tested on: SNB-75 CNS
HCC-2998 colon = tested on: HCC-2998 colon
MDA-MB-468 breast = tested on: MDA-MB-468 breast
OVCAR-4 ovarian = tested on: OVCAR-4 ovarian
NCI-H23 lung = tested on: NCI-H23 lung
UACC-257 melanoma = tested on: UACC-257 melanoma
DU-145 prostate = tested on: DU-145 prostate
SF-268 CNS = tested on: SF-268 CNS
786-0 renal = tested on: 786-0 renal
RXF 393 renal = tested on: RXF 393 renal
IGROV1 ovarian = tested on: IGROV1 ovarian
NCI-H460 lung = tested on: NCI-H460 lung

SMILES: COc1ccc2ncc(C#Cc3cncc(C(=O)Nc4ccc(CN5CCN(C)CC5)c(C(F)(F)F)c4)c3)n2n1
- GI50 (LOX IMVI melanoma): 0.877 µM
- TGI (LOX IMVI melanoma): 4.26 µM
- GI50 (SNB-19 CNS): 9.94 µM
- TGI (SNB-19 CNS): 21.5 µM
- GI50 (SR leukemia): 0.549 µM
- TGI (SR leukemia): > 30.5 µM
- GI50 (MALME-3M melanoma): 0.384 µM
- TGI (MALME-3M melanoma): 3.32 µM
- GI50 (CCRF-CEM leukemia): 0.203 µM
- TGI (CCRF-CEM leukemia): > 72 µM
- GI50 (SN12C renal): 1.37 µM
- TGI (SN12C renal): 8.03 µM
- GI50 (M14 melanoma): 0.569 µM
- TGI (M14 melanoma): 3.12 µM
- GI50 (NCI-H522 lung): 1.84 µM
- TGI (NCI-H522 lung): 14.1 µM
- GI50 (SF-539 CNS): 0.196 µM
- TGI (SF-539 CNS): 1.13 µM
- GI50 (EKVX NSCLC): 1.22 µM
- TGI (EKVX NSCLC): 13.3 µM
- GI50 (RPMI-8226 leukemia): 1.39 µM
- TGI (RPMI-8226 leukemia): > 72 µM
- GI50 (CAKI-1 renal): 1.08 µM
- TGI (CAKI-1 renal): 10.5 µM
- GI50 (BT-549 breast): 1.47 µM
- TGI (BT-549 breast): 9.85 µM
- GI50 (SW-620 colon): 0.27 µM
- TGI (SW-620 colon): 7.6 µM
- GI50 (MOLT-4 leukemia): 0.356 µM
- TGI (MOLT-4 leukemia): 4.07 µM
- GI50 (A498 renal): 14.2 µM
- TGI (A498 renal): > 37.7 µM
- GI50 (OVCAR-8 ovarian): 4.26 µM
- TGI (OVCAR-8 ovarian): 18.2 µM
- GI50 (SK-MEL-2 melanoma): 1.29 µM
- TGI (SK-MEL-2 melanoma): 6.54 µM
- GI50 (HS 578T breast): 0.398 µM
- TGI (HS 578T breast): 6.06 µM
- GI50 (SK-MEL-5 melanoma): 4.78 µM
- TGI (SK-MEL-5 melanoma): 14.9 µM
- GI50 (SF-295 CNS): 0.986 µM
- TGI (SF-295 CNS): 15.5 µM
- GI50 (OVCAR-5 ovarian): 0.838 µM
- TGI (OVCAR-5 ovarian): 9.91 µM
- GI50 (TK-10 renal): 6.03 µM
- TGI (TK-10 renal): 15.6 µM
- GI50 (HL-60(TB) leukemia): 0.31 µM
- TGI (HL-60(TB) leukemia): 4.25 µM
- GI50 (ACHN renal): 1.39 µM
- TGI (ACHN renal): > 28.4 µM
- GI50 (HCT-116 colon): 0.244 µM
- TGI (HCT-116 colon): 5.55 µM
- GI50 (NCI/ADR-RES ovarian): 2.23 µM
- TGI (NCI/ADR-RES ovarian): 9.34 µM
- GI50 (HOP-92 NSCLC): 0.238 µM
- TGI (HOP-92 NSCLC): 2.9 µM
- GI50 (U251 CNS): 9.62 µM
- TGI (U251 CNS): 23.2 µM
- GI50 (NCI-H226 lung): 0.147 µM
- TGI (NCI-H226 lung): 2.3 µM
- GI50 (PC-3 prostate): 3.76 µM
- TGI (PC-3 prostate): 19.9 µM
- GI50 (OVCAR-3 ovarian): 6.35 µM
- TGI (OVCAR-3 ovarian): > 39.7 µM
- GI50 (UO-31 renal): 3.23 µM
- TGI (UO-31 renal): 12.8 µM
- GI50 (KM12 colon): 0.0072 µM
- TGI (KM12 colon): 9.17 µM
- GI50 (T-47D breast): > 72 µM
- TGI (T-47D breast): > 72 µM
- GI50 (HOP-62 NSCLC): 1.16 µM
- TGI (HOP-62 NSCLC): 16.6 µM
- GI50 (SK-MEL-28 melanoma): 2.59 µM
- TGI (SK-MEL-28 melanoma): 5.8 µM
- GI50 (MCF7 breast): 0.295 µM
- TGI (MCF7 breast): 3.68 µM
- GI50 (MDA-MB-231 breast): 0.61 µM
- TGI (MDA-MB-231 breast): 6.53 µM
- GI50 (COLO 205 colon): 0.265 µM
- TGI (COLO 205 colon): 2.34 µM
- GI50 (HT29 colon): 0.444 µM
- TGI (HT29 colon): 9.45 µM
- GI50 (K-562 leukemia): 0.0072 µM
- TGI (K-562 leukemia): 1.11 µM
- GI50 (UACC-62 melanoma): 8.37 µM
- TGI (UACC-62 melanoma): 18.2 µM
- GI50 (SK-OV-3 ovarian): 5.68 µM
- TGI (SK-OV-3 ovarian): 20 µM
- GI50 (A549 NSCLC): 1.27 µM
- TGI (A549 NSCLC): 17.7 µM
- GI50 (HCT-15 colon): 0.496 µM
- TGI (HCT-15 colon): 9.8 µM
- GI50 (MDA-MB-435): 0.54 µM
- TGI (MDA-MB-435): 13.3 µM
- GI50 (SNB-75 CNS): 5.91 µM
- TGI (SNB-75 CNS): 15.9 µM
- GI50 (HCC-2998 colon): 4.16 µM
- TGI (HCC-2998 colon): 14.4 µM
- GI50 (MDA-MB-468 breast): 1.66 µM
- TGI (MDA-MB-468 breast): 13 µM
- GI50 (OVCAR-4 ovarian): 3.89 µM
- TGI (OVCAR-4 ovarian): 18.3 µM
- GI50 (NCI-H23 lung): 0.629 µM
- TGI (NCI-H23 lung): 10.3 µM
- GI50 (UACC-257 melanoma): 3.8 µM
- TGI (UACC-257 melanoma): 16.7 µM
- GI50 (DU-145 prostate): 2.19 µM
- TGI (DU-145 prostate): 13.4 µM
- GI50 (SF-268 CNS): 2.83 µM
- TGI (SF-268 CNS): 18.5 µM
- GI50 (786-0 renal): 3.53 µM
- TGI (786-0 renal): 15.6 µM
- GI50 (RXF 393 renal): 1.31 µM
- TGI (RXF 393 renal): 8.63 µM
- GI50 (IGROV1 ovarian): 3.81 µM
- TGI (IGROV1 ovarian): > 30.2 µM
- GI50 (NCI-H460 lung): 0.496 µM
- TGI (NCI-H460 lung): 13.1 µM
